Tests used:
[1] = biological target: T1, Serotonin 3 (5-HT3) receptor (Rattus norvegicus, UniProt P35563+Q9JJ16); assay: Inhibition of 5-HT (1 ug/mL) induced depolarization in rat vagus nerve (5-hydroxytryptamine 3 receptor antagonism); assay type: functional, tissue-based
T1 sequence (P35563 whole entry): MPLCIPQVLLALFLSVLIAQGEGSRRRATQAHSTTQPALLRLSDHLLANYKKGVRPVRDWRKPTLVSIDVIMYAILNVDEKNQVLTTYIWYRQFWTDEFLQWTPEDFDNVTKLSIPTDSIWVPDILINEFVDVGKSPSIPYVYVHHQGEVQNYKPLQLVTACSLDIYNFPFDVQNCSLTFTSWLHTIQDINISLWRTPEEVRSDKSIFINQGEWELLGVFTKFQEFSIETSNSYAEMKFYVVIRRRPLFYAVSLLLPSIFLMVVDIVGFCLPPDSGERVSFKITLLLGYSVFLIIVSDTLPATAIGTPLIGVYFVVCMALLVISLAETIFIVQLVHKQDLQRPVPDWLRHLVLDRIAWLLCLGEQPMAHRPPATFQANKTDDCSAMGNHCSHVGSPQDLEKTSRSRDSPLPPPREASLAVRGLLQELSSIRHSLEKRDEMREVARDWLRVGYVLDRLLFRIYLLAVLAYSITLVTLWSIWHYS
T1 sequence (Q9JJ16 whole entry): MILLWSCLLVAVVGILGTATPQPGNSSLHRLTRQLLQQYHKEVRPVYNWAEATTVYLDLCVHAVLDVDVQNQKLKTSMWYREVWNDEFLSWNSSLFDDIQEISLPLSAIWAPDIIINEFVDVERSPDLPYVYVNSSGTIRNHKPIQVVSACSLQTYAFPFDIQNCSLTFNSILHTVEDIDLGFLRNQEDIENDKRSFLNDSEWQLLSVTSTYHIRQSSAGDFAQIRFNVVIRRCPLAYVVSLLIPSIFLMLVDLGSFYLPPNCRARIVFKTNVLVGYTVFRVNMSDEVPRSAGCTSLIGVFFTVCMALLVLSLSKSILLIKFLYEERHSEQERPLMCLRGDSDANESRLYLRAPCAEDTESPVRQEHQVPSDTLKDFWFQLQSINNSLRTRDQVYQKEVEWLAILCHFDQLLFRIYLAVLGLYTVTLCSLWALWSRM

[2] = biological target: T2, Serotonin 3 (5-HT3) receptor (Rattus norvegicus) (UniProt P35563+Q9JJ16); assay: Ability to antagonise the 5-HT- induced Von Bezold-Jarisch reflex in the rat after intravenous administration of 30 ug/kg of HT (5-hydroxytryptamine 3 receptor); assay type: functional, organism-based
[3] = biological target: T1, Serotonin 3 (5-HT3) receptor; assay: Inhibition of [3H]GR-65630 binding to rat cortical membrane serotonin 3 receptor
[4] = biological target: T2, Serotonin 3 (5-HT3) receptor (Rattus norvegicus); assay: Antagonism of 5-HT-induced Von Bezold-Jarisch reflex in rat after intravenous administration of 30 ug/kg of HT (5-hydroxytryptamine 3 receptor antagonism); assay type: functional, organism-based
[5] = biological target: T1, Serotonin 3 (5-HT3) receptor; assay: Tested for inhibition of binding of [3H]GR-65630 to rat cortical membranes, expressed as IC50; assay type: cell membranes, Membrane
[6] = biological target: Serotonin 2 (5-HT2) receptor (Homo sapiens, UniProt P41595+P28223+P28335); assay: Tested for binding affinity for 5-hydroxytryptamine 2 receptor; assay type: protein assay
D(2) dopamine receptor [7] = biological target: T3, D(2) dopamine receptor (Homo sapiens, UniProt P14416); assay: Tested for binding affinity for Dopamine D2 receptor
[8] = biological target: T4, 5-hydroxytryptamine receptor 1A (Homo sapiens, UniProt P08908); assay: Tested for binding affinity for 5-hydroxytryptamine 1A receptor
T4 sequence (P08908 whole entry): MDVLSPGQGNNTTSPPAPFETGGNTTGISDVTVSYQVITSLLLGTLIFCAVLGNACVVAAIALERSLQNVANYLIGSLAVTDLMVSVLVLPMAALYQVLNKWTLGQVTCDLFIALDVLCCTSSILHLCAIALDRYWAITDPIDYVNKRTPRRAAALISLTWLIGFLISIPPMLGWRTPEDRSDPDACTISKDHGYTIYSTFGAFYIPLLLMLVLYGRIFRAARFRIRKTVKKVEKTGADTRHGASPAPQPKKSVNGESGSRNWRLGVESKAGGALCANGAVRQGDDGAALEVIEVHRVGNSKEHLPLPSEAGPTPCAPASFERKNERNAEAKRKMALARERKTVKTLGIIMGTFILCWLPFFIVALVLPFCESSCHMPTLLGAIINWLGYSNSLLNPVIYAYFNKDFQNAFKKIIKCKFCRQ

D(2) dopamine receptor [9] = biological target: T3, D(2) dopamine receptor; assay: Tested for binding affinity for Dopamine D2 receptors

T3 sequence (P14416 whole entry): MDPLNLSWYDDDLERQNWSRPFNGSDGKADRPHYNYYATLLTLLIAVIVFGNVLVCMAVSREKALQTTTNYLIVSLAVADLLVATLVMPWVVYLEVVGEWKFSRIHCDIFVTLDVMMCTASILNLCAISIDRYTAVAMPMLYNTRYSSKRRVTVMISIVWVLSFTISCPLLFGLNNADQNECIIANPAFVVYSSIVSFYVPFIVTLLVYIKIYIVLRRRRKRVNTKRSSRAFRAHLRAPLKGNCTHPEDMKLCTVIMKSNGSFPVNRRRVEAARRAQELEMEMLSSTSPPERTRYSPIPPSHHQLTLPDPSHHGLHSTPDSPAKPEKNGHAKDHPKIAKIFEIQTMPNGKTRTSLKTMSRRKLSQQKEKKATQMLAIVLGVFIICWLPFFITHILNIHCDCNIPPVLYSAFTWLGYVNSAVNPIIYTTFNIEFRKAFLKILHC

For `Cc1nn2ccccc2c1C(=O)NC1CC2CCC(C1)N2C` (stereo not given), the IC50 [1] was 42 nM, the ED50 [2] was 1.2 µg/kg and the IC50 [3] was 26 nM.
In the case of `O=C(N[C@@H]1CN2CC[C@@H]1C2)c1cnn2ccccc12`, the IC50 [1] is reported as 419 nM, the IC50 [3] is reported as 72 nM and the ED50 [4] is reported as 8 µg/kg.
With `CN1C2CCCC1CC(NC(=O)c1cnn3ncccc13)C2` (stereo not given) the ED50 [2] was over 100 µg/kg and the IC50 [5] was 818 nM.
`Cc1nn2ncccc2c1C(=O)NC1CC2CCC(C1)N2C` (stereo not given) showed an ED50 [2] of 50 µg/kg and an IC50 [3] of 122 nM.
`CN1C2CCC1CC(NC(=O)c1cnn3ncccc13)C2` (stereo not given) gave an IC50 [3] of 429 nM and an ED50 [4] of 30 µg/kg.
Compound `CN1C2CCC1CC(NC(=O)c1cnn3ccccc13)C2` (stereo not given) has an IC50 [1] of 105 nM, an IC50 [6] of over 10000 nM and an IC50 (D(2) dopamine receptor [7]) of over 10000 nM. The IC50 [8] was over 10000 nM, the IC50 [3] was 34 nM and the ED50 [4] was 0.74 µg/kg.
Compound `CN1C2CCCC1CC(NC(=O)c1cnn3ccccc13)C2` (stereo not given) has an IC50 [1] of 300 nM, an IC50 [3] of 170 nM and an ED50 [4] of 5 µg/kg.
Compound `O=C(N[C@H]1CN2CCC1C2)c1cnn2ccccc12` (stereo not given in full) has an IC50 [1] of 124 nM, an IC50 [3] of 52 nM and an ED50 [4] of 2 µg/kg.
Compound `CN1[C@@H]2CC[C@H]1C[C@@H](OC(=O)c1c[nH]c3ccccc13)C2` [TROPISETRON] has an IC50 [1] of 1.4 nM, an IC50 [3] of 3.1 nM and an ED50 [4] of 0.5 µg/kg.
Work on `O=C(NC1CN2CCC1CC2)c1cnn2ccccc12` (stereo not given) yielded an IC50 [1] of 83 nM, an IC50 [3] of 75 nM and an ED50 [4] of 1 µg/kg.
For `Cc1nn2ncccc2c1C(=O)NC1CC2CCCC(C1)N2C` (stereo not given), the ED50 [2] was over 50 µg/kg and the IC50 [3] was over 300 nM.
Work on `Cc1nn2ccccc2c1C(=O)NC1CC2CCCC(C1)N2C` (stereo not given) yielded an IC50 [1] of 100 nM, an IC50 [3] of 64 nM and an ED50 [4] of 6 µg/kg.
Compound `CN1C2CCC1CC(OC(=O)c1cnn3ccccc13)C2` (stereo not given) has an IC50 [6] of over 10000 nM, an IC50 (D(2) dopamine receptor [9]) of over 10000 nM and an IC50 [8] of over 10000 nM. For the same compound, the IC50 [3] was 28 nM and the ED50 [4] was 2 µg/kg.
